The values below come from PMC10222839, “Development of Novel Small-Molecule Activators of Pyruvate Kinase Muscle Isozyme 2, PKM2, to Reduce Photoreceptor Apoptosis” (Pharmaceuticals, 2023).

One data set relates to 661W cells. The experiment in a line: Cell viability of 661W cells (RealTime-Glo MT). Particulars: for cell viability: in presence of FasL, 48 h, versus vehicle. Type of data set: cell-based. Here is the method: To be confident the pyridazinoindolone core could be utilized in future medicinal chemistry efforts, its photoreceptor neuroprotective effect was assessed. […] Fas signaling has a critical role in caspase activation and photoreceptor apoptosis after experimental retinal detachment. 661W cells die via caspase-mediated mechanisms, and the Fas-ligand (FasL) treatment of these cells leads to the activation of caspases and subsequent death, analogous to the in vivo experimental retinal detachment model. Furthermore, similar to photoreceptors, 661W cells express PKM2 (Figure 4a), and these cells have been used to garner information on the role of metabolism in photoreceptor degeneration. As such, this is a suitable in vitro model of photoreceptor stress that can be utilized to assess the consequences of reprogramming metabolism by pharmacologically activating PKM2 [9]. 661W cells were treated with FasL and either compound 2 or vehicle (DMSO).
A luminescent assay kit (RealTime-Glo MT Cell Viability Assay, Promega, Madison, WI, USA, Cat No. G9711) was utilized to assess cell viability. As above, 661W cells were seeded in 96-well plates (Nunc, Rochester, NY, USA) at 2500 cells/well 1 day before treatment. The 661w cells were also pre-treated with compound 2 or DMSO for 2 h before adding 500 ng/mL FasL and 250 ng/mL HA. Viability was measured 48 h after the addition of these latter reagents. As with the caspase assays, luminescence was monitored via a plate reader luminometer (BMG Labtech, Inc., Cary, NC, USA).

In data set [1] the test system is cleaved caspase-8-positive cells in the retina. The experiment in a line: Experimental retinal detachment, flow cytometry of cleaved caspase 8. As to conditions: rat retinal detachment, highest dose tested (1 mM final vitreous), intravitreal, 3 days, versus DMSO. Type of data set: in vivo. An excerpt: Caspase activation, including caspase 8, increases 3 days status post experimental retinal detachment and has been validated to be a marker of photoreceptor apoptosis and the extent of retinal-detachment-induced photoreceptor cell death. Additionally, this caspase activation coincides with the peak of the terminal deoxynucleotidyl transferase dUTP nick end labeling (TUNEL) staining of photoreceptors, specifically after experimental retinal detachment in rodents. So, the detection and quantification of cleaved caspase 8 can be used as a marker of photoreceptor death after experimental retinal detachment and to assess the efficacy of neuroprotective agents. As such, different concentrations of compound 2 or its vehicle, DMSO, were injected at the time of retinal detachment creation in rats, and the retinas were harvested 3 days later to assess caspase 8 activation.
Detachments were created in rats as previously outlined. In brief, rats were anesthetized with ketamine (100 mg/mL) and xylazine (20 mg/mL), and their pupils were dilated as above. […]
After washing the cells in ice-cold PBS, the cells were fixed with 4% paraformaldehyde for 20 min at room temperature followed by two PBS washes via centrifugation at 300× g for 10 min at 4 °C. […] Data were analyzed with FCS Express software (De Novo Software, Ontario, CA, USA).
(In general: Flow cytometry measures light scatter and fluorescence of single cells or particles in a stream.)

In the next data set the target is T1, human recombinant PKM2 (Homo sapiens, UniProt P14618).
T1 construct: purchased Sigma SAE0021
T1 sequence (P14618 whole entry): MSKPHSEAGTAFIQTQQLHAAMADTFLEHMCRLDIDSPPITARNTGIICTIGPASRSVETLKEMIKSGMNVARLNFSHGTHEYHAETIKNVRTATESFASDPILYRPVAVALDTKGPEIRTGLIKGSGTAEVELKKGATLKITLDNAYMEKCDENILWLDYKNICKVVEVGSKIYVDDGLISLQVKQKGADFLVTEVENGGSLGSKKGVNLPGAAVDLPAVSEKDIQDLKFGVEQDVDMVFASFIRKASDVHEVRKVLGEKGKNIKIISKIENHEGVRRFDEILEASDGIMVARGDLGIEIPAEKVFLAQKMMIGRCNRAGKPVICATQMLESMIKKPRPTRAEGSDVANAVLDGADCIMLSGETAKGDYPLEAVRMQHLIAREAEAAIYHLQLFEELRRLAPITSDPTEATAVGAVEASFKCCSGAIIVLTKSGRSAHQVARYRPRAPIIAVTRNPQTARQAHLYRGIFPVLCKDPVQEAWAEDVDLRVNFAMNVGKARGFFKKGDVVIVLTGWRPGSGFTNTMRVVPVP
The experiment in a line: Pyruvate kinase enzyme-coupled (LDH/NADH) assay with recombinant PKM2. The class given is biochemical. Here is the method: Recombinant Enzyme. An enzyme-coupled assay that measures the depletion of NADH via absorbance at 340 nm and uses lactate dehydrogenase (LDH) was employed to determine the activity of pyruvate kinase (PK). To determine the AC50 (concentration of activator necessary to achieve half-maximal activation) of the different small molecules with PKM2, assays were conducted in a 96-well format using 200 μL/well assay volume with 10 nM human recombinant PKM2 (Sigma, St. Louis, MO, USA, Cat No. SAE0021) or PKM1 (Sigma, […], Cat No. SRP0415), differing concentrations of activator, 0.5 mM PEP, 1 mM ADP, 0.2 mM NADH, and 8 U of LDH in a buffer of 50 mM Tris-HCl (pH 7.4), 100 mM KCl, and 5 mM MgCl2 as previously described. A SPECTROstar Omega plate reader (BMG LABTECH Inc., Cary, NC, USA) monitored absorbance at 340 nm. The MARS software suite was utilized to determine initial velocities. Data were normalized to DMSO (dimethyl sulfoxide)-treated enzyme activity, as previously described.

The AC50 is the concentration giving half of the maximal activity seen. For the compound `Cn1c2cc([S+](C)[O-])ccc2c2cnn(Cc3cccc(N)c3)c(=O)c21` (stereo not drawn) [Compound 2], the cell viability entry was “significantly improved” in the data set on 661W cells (200 nM) and “trended towards improved cell viability” in the data set with 661W cells (2 μM). For the same compound, the “cell viability, compound alone” value in the data set on 661W cells (no FasL, concentration near AC50 or more than 10-fold greater) is “no significant effect”. Further, the “percentage of cleaved caspase-8-positive cells in the retina” value in data set [1] is “statistically significantly reduced”. For the same compound, the AC50 at human recombinant PKM2 (recombinant human PKM2, n = 3, best-fit value ± std. error) was 50 ± 12 nM. The Emax at human recombinant PKM2 (recombinant human PKM2, n = 3, normalized to DMSO-treated enzyme, read-out: Recombinant PKM2 Max Activation) was found to be 292 ± 20%.
